Source: patent publication US20150031572A1, “MEANS AND METHODS FOR ASSESSING NEURONAL TOXICITY” (priority 2012, published 2015)
Marks after values point to notes of the source that are not given here.

Assay: Plasma metabolite profiling (GC-MS, LC-MS, SPE-LC-MS) of rats dosed once daily over 28 days; treatment ratios versus untreated control
Type: in vivo, rat
Procedure: A group of each 5 male and female rats was dosed once daily with the indicated compounds (see Table 10, below for compounds, applied doses and administration details) over 28 days.
Each dose group in the studies consisted of five rats per sex. Additional groups of each 5 male and female animals served as controls. Before starting the treatment period, animals, which were 62-64 days old when supplied, were acclimatized to the housing and environmental conditions for 7 days. All animals of the animal population were kept under the same constant temperature (20-24±3° C.) and the same constant humidity (30-70%). The animals of the animal population were fed ad libitum. The food to be used was essentially free of chemical or microbial contaminants. Drinking water was also offered ad libitum. Accordingly, the water was free of chemical and microbial contaminants as laid down in the European Drinking Water Directive 98/83/EG. The illumination period was 12 hours light followed by 12 hours darkness (12 hours light, from 6:00 to 18:00, and 12 hours darkness, from 18:00 to 6:00). […] The test substances (compounds) in the Tables 1 to 9 below were dosed and administered as described in the Table 10 above.
In the morning of day 7, 14, and 28, blood was taken from the retro-orbital venous plexus from fasted anaesthetized animals. From each animal, 1 ml of blood was collected with EDTA as anticoagulant. The samples were centrifuged for generation of plasma. All plasma samples were covered with a N2 atmosphere and then stored at −80° C. until analysis.
For mass spectrometry-based metabolite profiling analyses plasma samples were extracted and a polar and a non-polar (lipid) fraction was obtained. For GC-MS analysis, the non-polar fraction was treated with methanol under acidic conditions to yield the fatty acid methyl esters. Both fractions were further derivatised with O-methyl-hydroxyamine hydrochloride and pyridine to convert Oxogroups to O-methyloximes and subsequently with a silylating agent before analysis. In LC-MS analysis, both fractions were reconstituted in appropriate solvent mixtures. HPLC was performed by gradient elution on reversed phase separation columns. Mass spectrometric detection which allows target and high sensitivity MRM (Multiple Reaction Monitoring) profiling in parallel to a full screen analysis was applied as described in WO2003073464.
Steroids and their metabolites were measured by online SPE-LC-MS (Solid phase extraction-LC-MS).
Following comprehensive analytical validation steps, the data for each analyte were normalized against data from pool samples. These samples were run in parallel through the whole process to account for process variability. The significance of treatment group values specific for sex, treatment duration and metabolite was determined by comparing means of the treated groups to the means of the respective untreated control groups using WELCH-test and quantified with treatment ratios versus control and p-values.
The identification of the most important biomarkers per toxicity pattern was done by a ranking of the analytes in the tables below. Therefore the metabolic changes in reference treatments of a given pattern (shown in the table) were compared with changes of the same metabolite in other unrelated treatments. […] The maximum absolute value of the respective TVALUE was taken to indicate the most important metabolite for the pattern.

[1] = plasma, female rats, day 28, low dose, Table 1c
[2] = plasma, female rats, day 28, low dose, Table 1d
[3] = plasma, male rats, day 28, low dose, Table 1b
[4] = plasma, female rats, day 7, high dose, Table 9a
[5] = plasma, female rats, day 7, high dose, Table 9b
[6] = plasma, female rats, day 14, high dose, Table 9a
[7] = plasma, female rats, day 14, high dose, Table 9b
[8] = plasma, female rats, day 28, high dose, Table 9a
[9] = plasma, female rats, day 28, high dose, Table 9b
[10] = plasma, male rats, day 7, high dose, Table 9c
[11] = plasma, male rats, day 7, high dose, Table 9d
[12] = plasma, male rats, day 14, high dose, Table 9c
[13] = plasma, male rats, day 14, high dose, Table 9d
[14] = plasma, male rats, day 28, high dose, Table 9c
[15] = plasma, male rats, day 28, high dose, Table 9d

SMILES: O=C1NC(=O)C(c2ccccc2)(c2ccccc2)N1 [Phenytoin]
- Coenzyme Q9, ratio versus control [1]: 1.22 *
- Valine, ratio versus control [1]: 1.36 *
- Cysteine, ratio versus control [2]: 0.86 *
- Glutamate, ratio versus control [2]: 0.81 *
- Pyruvate, ratio versus control [2]: 0.65 *
- myo-Inositol, ratio versus control [2]: 0.69 *
- 3-Indoxylsulfate, ratio versus control (plasma, male rats, day 28, low dose, Table 1a): 1.78^
- Cysteine, ratio versus control [3]: 0.73 *
- Ketoleucine, ratio versus control [3]: 0.76 *
- Malate, ratio versus control [3]: 0.84 *
- Phosphatidylcholine (C16:0, C20:4), ratio versus control [3]: 0.99 *
- Phosphatidylcholine (C16:0, C22_6), ratio versus control [3]: 0.95 *
- Isoleucine, ratio versus control (rat, in vivo): 1.23 *
- Pantothenic acid, ratio versus control (rat, in vivo): 1.25 *
- Phosphate (inorganic and organic phosphates), ratio versus control (rat, in vivo): 1.25 *
- alpha-Tocopherol, ratio versus control (rat, in vivo): 1.16 *

SMILES: O=C1CCCC(=O)C1C(=O)c1ccc(C(F)(F)F)cc1[N+](=O)[O-] [NTBC (HPPD-Inhibitor), NTBC]
- 4-Hydroxyphenylpyruvate, ratio versus control [4]: 245.75*
- Glycine, ratio versus control [4]: 1.2*
- Phosphatidylcholine (C18:0,C18:2), ratio versus control [4]: 1.03*
- Serine, ratio versus control [4]: 1.38*
- TAG (C16:0,C18:2), ratio versus control [4]: 1.62*
- TAG (C18:1,C18:2), ratio versus control [4]: 2.45*
- TAG (C18:2,C18:2), ratio versus control [4]: 1.91*
- Threonine, ratio versus control [4]: 1.43*
- Tyrosine, ratio versus control [4]: 37.75*
- gamma-Linolenic acid (C18:cis[6,9,12]3), ratio versus control [4]: 1.34
- 5-Oxoproline, ratio versus control [5]: 0.5*
- Glutamine, ratio versus control [5]: 0.54*
- 4-Hydroxyphenylpyruvate, ratio versus control [6]: 293.51*
- Glycine, ratio versus control [6]: 1.33*
- Phosphatidylcholine (C18:0,C18:2), ratio versus control [6]: 1
- Serine, ratio versus control [6]: 1.48*
- TAG (C16:0,C18:2), ratio versus control [6]: 1.37*
- TAG (C18:1,C18:2), ratio versus control [6]: 2.22*
- TAG (C18:2,C18:2), ratio versus control [6]: 1.92*
- Threonine, ratio versus control [6]: 1.82*
- Tyrosine, ratio versus control [6]: 50.64*
- gamma-Linolenic acid (C18:cis[6,9,12]3), ratio versus control [6]: 1.61*
- 5-Oxoproline, ratio versus control [7]: 0.55*
- Glutamine, ratio versus control [7]: 0.46*
- 4-Hydroxyphenylpyruvate, ratio versus control [8]: 276.92*
- Glycine, ratio versus control [8]: 1.48*
- Phosphatidylcholine (C18:0,C18:2), ratio versus control [8]: 1.05*
- Serine, ratio versus control [8]: 1.43*
- TAG (C16:0,C18:2), ratio versus control [8]: 1.44*
- TAG (C18:1,C18:2), ratio versus control [8]: 1.51*
- TAG (C18:2,C18:2), ratio versus control [8]: 1.31*
- Threonine, ratio versus control [8]: 1.52*
- Tyrosine, ratio versus control [8]: 38.31*
- gamma-Linolenic acid (C18:cis[6,9,12]3), ratio versus control [8]: 1.55*
- 5-Oxoproline, ratio versus control [9]: 0.69*
- Glutamine, ratio versus control [9]: 0.48*
- 4-Hydroxyphenylpyruvate, ratio versus control [10]: 364.14*
- Lysine, ratio versus control [10]: 1.12
- Threonine, ratio versus control [10]: 1.36*
- Tyrosine, ratio versus control [10]: 56.14*
- 5-Oxoproline, ratio versus control [11]: 0.6*
- Citrulline, ratio versus control [11]: 0.84*
- Glutamine, ratio versus control [11]: 0.55*
- Phenylalanine, ratio versus control [11]: 0.78*
- 4-Hydroxyphenylpyruvate, ratio versus control [12]: 435.77*
- Lysine, ratio versus control [12]: 1.4*
- Threonine, ratio versus control [12]: 1.51*
- Tyrosine, ratio versus control [12]: 58.08*
- 5-Oxoproline, ratio versus control [13]: 0.61*
- Citrulline, ratio versus control [13]: 0.88*
- Glutamine, ratio versus control [13]: 0.57*
- Phenylalanine, ratio versus control [13]: 0.77*
- 4-Hydroxyphenylpyruvate, ratio versus control [14]: 366.39*
- Lysine, ratio versus control [14]: 1.46*
- Threonine, ratio versus control [14]: 1.54*
- Tyrosine, ratio versus control [14]: 52.56*
- 5-Oxoproline, ratio versus control [15]: 0.6*
- Citrulline, ratio versus control [15]: 0.83*
- Glutamine, ratio versus control [15]: 0.58*
- Phenylalanine, ratio versus control [15]: 1.02
